The record followed here is BindingDB's records for doi:10.1016/s0960-894x(98)00253-4 (San Francisco State University, 1999).

This assay deals with T1, Gamma-glutamyl hydrolase (Homo sapiens, UniProt Q92820).
T1 sequence (Q92820 whole entry): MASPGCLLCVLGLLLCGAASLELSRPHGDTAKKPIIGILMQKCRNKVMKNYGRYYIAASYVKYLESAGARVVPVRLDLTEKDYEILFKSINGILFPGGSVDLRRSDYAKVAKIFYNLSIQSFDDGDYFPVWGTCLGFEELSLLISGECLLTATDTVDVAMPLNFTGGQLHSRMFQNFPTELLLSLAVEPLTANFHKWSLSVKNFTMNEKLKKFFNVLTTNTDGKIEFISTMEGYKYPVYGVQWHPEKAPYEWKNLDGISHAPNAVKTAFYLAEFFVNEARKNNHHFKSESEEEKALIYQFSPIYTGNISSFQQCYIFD
Put plainly: ChEBML_68750. Particulars: read-out: kon (M-1-s-1). The procedure:
Compound was tested for inhibitory potency against gamma-Glutamyl Hydrolase.

Regarding `COP(=O)(N[C@@H](CCC(=O)O)C(=O)O)c1ccccc1` (some centres not stated), the on-rate (kon) stood at 4400 M⁻¹ s⁻¹.

With `COP(=O)(N[C@@H](CCC(=O)O)C(=O)O)OC`, the association rate constant (kon) worked out at 177000 M⁻¹ s⁻¹.

A word on the kon: it is the second-order rate constant of association.
